According to US20250032454A1, “KDM1A INHIBITORS FOR THE TREATMENT OF DISEASE” (Imago Biosciences, Inc., priority 2021, published 2025):
pIC50: −log10 of the molar value. Read-outs that look alike come from different tables or passages of the source.

Experiments:
LSD1 = LSD1 (Homo sapiens, UniProt O60341); test: LSD1 fluorescence coupling enzyme assay (HRP/Amplex Red, H3(1-21)K4me2 peptide), 10-dose IC50; assay type: biochemical; conditions: 10 μM histone H3(1-21)K4me2 peptide substrate, 3-fold serial dilution from 100 μM
Description: Assaying the inhibition of KDM1A can be determined in vitro, in cultured cells, and in animals. There are a variety of spectrophotometric methods to detect the results of demethylation of methylated lysines, viz., detecting the products of KDM1A demethylase oxidative activity on a peptide fragment of at least 18 amino acids representing the N-terminus of the histone H3 substrate that contains a monomethyl at the fourth lysine residue. Hydrogen peroxide, one product of the KDM1A demethylase reaction, reacts with horseradish peroxidase and dihydroxyphenoxazine (ADHP) to produce the fluorescent compound resorufin (excitation=530-560 nm: emission=590 nm). The KDM1A demethylase enzyme activity can be obtained from mammalian cells or tissues expressing KDM1A from an endogenous or recombinant gene and purified or assayed from a whole cell extract. These methods can be used to determine the concentration of the disclosed compounds can inhibit fifty percent of the enzyme activity (IC50).
Alternatively, the production of H2O2 during the KDM1A reaction can be detected fluometrically. In this system, the production of H2O2 is detected in the HDM assay buffer after exposure to substrate, co-factor and enzyme using ADHP (10-Acetyl-3, 7-dihydroxyphenoxazine) as a fluorogenic substrate for horse radish peroxidase (HRP). […] The florescent product is resorufin. Sensitivity can be as low as 10-15 M of target protein. The signal is read using a fluorescence microplate reader at excitation and emission wavelengths of 530-560 nm and 590 nm, respectively.
Compounds were tested in a 10-dose IC50 mode fluorescence coupling enzyme assay with 3-fold serial dilution in duplicate starting at 100 μM. The production of FAD-dependent H2O2 as a result of demethylase activity of LSD1 on 10 μM histone H3(1-21)K4me2 peptide substrate was measured by coupling with HRP and Amplex Red to yield resorufin (fluorescence measured at Ex/Em=535/590 nm on EnVision, Perkin Elmer).

MV4;11 cells = test: Cell Titer-Glo cell growth inhibition in MV4;11 cell line (Day 5 / Day 10); assay type: cell-based
Procedure: Cell growth inhibition against MV4;11 cells was confirmed for the synthetic compounds. The Cell Titer-Glo Luminescent Cell Viability Assay (Promega, USA) was used to determine the number of viable cells in culture based on quantitation of the ATP present, which signals the presence of metabolically active cells. This assay was run in a 96-well plate format arrayed in a 10-point dose curve, ranging from 0 to 50 µM with 4-fold dilutions for each compound. Cells are seeded on Day 0 at 3750 cells per well. At Day 5, a portion of each well is assayed for viability according to the Cell Titer-Glo protocol. Briefly, cells/plates were centrifuged at 1100×g for 5 minutes. 100 μL of media was removed from each well and replaced with 100 μL of CellTiter-Glo. The plates were shaken at room temperature for 10 minutes and measured on a luminescence plate reader. Another portion of each well from the Day 5 plate is used to seed a new 96 plate containing fresh compound and media set up in the equivalent 10-point dose curve array in order to continue the cell growth inhibition assay for another 5 days. A final timepoint is collected at Day 10 using the Cell Titer-Glo protocol. Luminescence was detected on an En Vision® Multilabel Plate Reader (Perkin Elmer, Waltham, Mass.) and IC50 determination was made using Graph Pad Prism software.

[1] = Day 5, read-out: Cell Titer-Glo IC50 (5 d)
[2] = Homo sapiens, MV4-11, 120 h, Day 5, read-out: Cell Titer-Glo IC50 (5 d)
[3] = Homo sapiens, MV4-11, 240 h, Day 10, read-out: Cell Titer-Glo IC50 (10 d)
[4] = Day 10, read-out: Cell Titer-Glo IC50 (10 d)
[5] = Homo sapiens, 120 h, Day 5, read-out: Cell Titer-Glo IC50 (5 d)
[6] = Homo sapiens, 240 h, Day 10, read-out: Cell Titer-Glo IC50 (10 d)

Molecule | pIC50 (LSD1) | pIC50 (MV4;11 cells; [1]) | pIC50 (MV4;11 cells; [2]) | pIC50 (MV4;11 cells; [3]) | pIC50 (MV4;11 cells; [4]) | pIC50 (MV4;11 cells; [5]) | pIC50 (MV4;11 cells; [6])
4-(3-(4-aminopiperidin-1-yl)-1-(p-tolyl)-1H-pyrazol-5-yl)-2-fluorobenzonitrile/4-(5-(4-aminopiperidin-1-yl)-1-(p-tolyl)-1H-pyrazol-3-yl)-2-fluorobenzonitrile [Example 34] | > 6.30 | 5.00 to 6.00 |  |  |  |  | 
COc1ccc(-n2nc(NCC3CC[C@@H](N)C3)cc2-c2ccc(C#N)c(F)c2)cc1 (mixture of isomers) [Example 4, rac-4-(3-((((1S,3R)-3-aminocyclopentyl)methyl)amino)-1-(4-methoxyphenyl)-1H-pyrazol-5-yl)-2-fluorobenzonitrile] | > 6.30 |  | 5.00 to 6.00 |  |  |  | 
COc1ccc(-n2nc(NC[C@H]3CCC[C@@H](N)C3)cc2-c2ccc(C#N)c(F)c2)cc1 (racemic) [Example 5, rac-4-(3-((((15,3R)-3-aminocyclohexyl)methyl)amino)-1-(4-methoxyphenyl)-1H-pyrazol-5-yl)-2-fluorobenzonitrile] | > 6.30 |  | > 6.30 |  |  |  | 
Cn1ncc2cc(-n3nc(NCC4CCCC(N)C4)cc3-c3ccc(C#N)c(F)c3)ccc21 (racemic) [Example 7, rac-4-(3-(((3-aminocyclohexyl)methyl)amino)-1-(1-methyl-1H-indazol-5-yl)-1H-pyrazol-5-yl)-2-fluorobenzonitrile] | > 6.30 |  | > 6.30 |  |  |  | 
COc1ccc(-n2nc(NCC3CC3N)cc2-c2ccc(C#N)c(F)c2)cc1 (racemic) [Example 29, (±)-trans-4-(3-(((2-aminocyclopropyl)methyl)amino)-1-(4-methoxyphenyl)-1H-pyrazol-5-yl)-2-fluorobenzonitrile] | 5.00 to 6.00 |  | 5.00 to 6.00 | 5.00 to 6.00 |  |  | 
COc1ccc(-n2nc(NC[C@H]3CC[C@@H](N)C3)cc2-c2ccc(C#N)c(F)c2)cc1 (single isomer, unassigned) [Example 4a] | > 6.30 |  | > 6.30 |  |  |  | 
COc1ccc(-n2nc(NC[C@@H]3CC[C@H](N)C3)cc2-c2ccc(C#N)c(F)c2)cc1 (single isomer, unassigned) [Example 4b] | > 6.30 |  | 6.00 to 6.30 |  |  |  | 
COc1ccc(-n2nc(NC[C@H]3CCC[C@@H](N)C3)cc2-c2ccc(C#N)c(F)c2)cc1 (single isomer, unassigned) [Example 5a] | > 6.30 |  | 6.00 to 6.30 |  |  |  | 
COc1ccc(-n2nc(NC[C@@H]3CCC[C@H](N)C3)cc2-c2ccc(C#N)c(F)c2)cc1 (single isomer, unassigned) [Example 5b] | > 6.30 |  | > 6.30 |  |  |  | 
Cn1ncc2cc(-n3nc(NC[C@H]4CCC[C@@H](N)C4)cc3-c3ccc(C#N)c(F)c3)ccc21 (single isomer, unassigned) [Example 7a] | 6.00 to 6.30 |  | 5.00 to 6.00 |  |  |  | 
Cn1ncc2cc(-n3nc(NC[C@@H]4CCC[C@H](N)C4)cc3-c3ccc(C#N)c(F)c3)ccc21 (single isomer, unassigned) [Example 7b] | > 6.30 |  | 6.00 to 6.30 |  |  |  | 
Cn1ncc2cc(-n3nc(NC[C@H]4CCC[C@H](N)C4)cc3-c3ccc(C#N)c(F)c3)ccc21 (single isomer, unassigned) [Example 7c] | > 6.30 |  | > 6.30 | > 6.30 |  |  | 
Cn1ncc2cc(-n3nc(NC[C@@H]4CCC[C@@H](N)C4)cc3-c3ccc(C#N)c(F)c3)ccc21 (single isomer, unassigned) [Example 7d] | > 6.30 |  | > 6.30 | > 6.30 |  |  | 
Cn1cc2cc(-n3nc(NC[C@@H]4CCCNC4)cc3-c3ccc(C#N)c(F)c3)ccc2n1 (single isomer, unassigned) [Example 9a] | 5.00 to 6.00 |  | > 6.30 |  |  |  | 
Cn1cc2cc(-n3nc(NC[C@H]4CCCNC4)cc3-c3ccc(C#N)c(F)c3)ccc2n1 (single isomer, unassigned) [Example 9b] | > 6.30 |  | > 6.30 |  |  |  | 
COc1ccc(-n2nc(NCC3CCCNCC3)cc2-c2ccc(C#N)c(F)c2)cc1 (single isomer, unassigned) [Example 22a, 4-(3-((azepan-4-ylmethyl)amino)-1-(4-methoxyphenyl)-1H-pyrazol-5-yl)-2-fluorobenzonitrile] | > 6.30 |  | > 6.30 | > 6.30 |  |  | 
COc1ccc(-n2nc(NCC3CCCNCC3)cc2-c2ccc(C#N)c(F)c2)cc1 (single isomer, unassigned) [Example 22b, 4-(3-((azepan-4-ylmethyl)amino)-1-(4-methoxyphenyl)-1H-pyrazol-5-yl)-2-fluorobenzonitrile] | > 6.30 | 6.00 to 6.30 |  |  | > 6.30 |  | 
N#Cc1ccc(-c2cc(NC[C@@H]3CCCNCC3)nn2-c2ccc(N3CCCC3)cc2)cc1F (single isomer, unassigned) [Example 24a] | > 6.30 |  | > 6.30 | > 6.30 |  |  | 
N#Cc1ccc(-c2cc(NC[C@H]3CCCNCC3)nn2-c2ccc(N3CCCC3)cc2)cc1F (single isomer, unassigned) [Example 24b] | > 6.30 |  | > 6.30 | > 6.30 |  |  | 
N#Cc1ccc(-c2cc(NC[C@@H]3CCCNCC3)nn2-c2ccc(C(=O)N3CCCC3)cc2)cc1F (single isomer, unassigned) [Example 25a] | > 6.30 |  | > 6.30 | > 6.30 |  |  | 
N#Cc1ccc(-c2cc(NC[C@H]3CCCNCC3)nn2-c2ccc(C(=O)N3CCCC3)cc2)cc1F (single isomer, unassigned) [Example 25b] | > 6.30 |  | 5.00 to 6.00 | > 6.30 |  |  | 
N#Cc1ccc(-c2cc(NC[C@@H]3CCCNCC3)nn2-c2ccc(N3CCS(=O)(=O)CC3)cc2)cc1F (single isomer, unassigned) [Example 26a] | > 6.30 |  | > 6.30 | > 6.30 |  |  | 
N#Cc1ccc(-c2cc(NC[C@H]3CCCNCC3)nn2-c2ccc(N3CCS(=O)(=O)CC3)cc2)cc1F (single isomer, unassigned) [Example 26b] | > 6.30 |  | > 6.30 | > 6.30 |  |  | 
N#Cc1ccc(-c2cc(NC[C@@H]3CCCNCC3)nn2-c2ccc(N3CCN(CCO)CC3)cc2)cc1F (single isomer, unassigned) [Example 27a] | > 6.30 |  | 6.00 to 6.30 | > 6.30 |  |  | 
N#Cc1ccc(-c2cc(NC[C@H]3CCCNCC3)nn2-c2ccc(N3CCN(CCO)CC3)cc2)cc1F (single isomer, unassigned) [Example 27b] | > 6.30 |  | > 6.30 | > 6.30 |  |  | 
COc1ccc(-n2nc(NCC3CC3N)cc2-c2ccc(C#N)c(F)c2)cc1 (single isomer, unassigned) [Example 29a, 4-(3-(((2-aminocyclopropyl)methyl)amino)-1-(4-methoxyphenyl)-1H-pyrazol-5-yl)-2-fluorobenzonitrile] | 6.00 to 6.30 |  | 5.00 to 6.00 | > 6.30 |  |  | 
COc1ccc(-n2nc(NCC3CC3N)cc2-c2ccc(C#N)c(F)c2)cc1 (single isomer, unassigned) [Example 29b, 4-(3-(((2-aminocyclopropyl)methyl)amino)-1-(4-methoxyphenyl)-1H-pyrazol-5-yl)-2-fluorobenzonitrile] | > 6.30 | 5.00 to 6.00 |  |  | > 6.30 |  | 
Cn1ncc2cc(-n3nc(NC[C@@H]4CN5CCC4CC5)cc3-c3ccc(C#N)c(F)c3)ccc21 (single isomer, unassigned) [Example 31a] | > 6.30 |  |  |  |  | 5.00 to 6.00 | > 6.30
Cn1ncc2cc(-n3nc(NC[C@H]4CN5CCC4CC5)cc3-c3ccc(C#N)c(F)c3)ccc21 (single isomer, unassigned) [Example 31b] | > 6.30 |  |  |  |  | 6.00 to 6.30 | > 6.30
CN[C@H]1CCCC(CNc2cc(-c3ccc(C#N)c(F)c3)n(-c3ccc(OC)cc3)n2)C1 (single isomer, unassigned) [Example 32a] | > 6.30 |  | 5.00 to 6.00 |  |  |  | 
